Experimental findings from ChEMBL document CHEMBL3400133, “Three new fusidic acid derivatives and their antibacterial activity” (2015) are described below.

The source made the active and inactive calls. No cut-off for these calls is given here. Bounds are passed on as bounds.

The test system of one experiment is Escherichia coli. The experiment in a line: Antibacterial activity against Escherichia coli XL-1 Blue assessed as inhibition of microbial growth at 0.064 ug/ml to 125 ug/ml incubated at 37 degC for 20 hrs. It counts as functional, organism-based.
Conditions: not given
In the case of `CC(=O)O[C@@H]1[C@H]2[C@H](C)[C@H](O)CC[C@]2(C)[C@@H]2CC[C@H]3/C(=C(\CCC=C(C)C)C(=O)O)[C@@H](OC(C)=O)C[C@]3(C)[C@@]2(C)[C@H]1O`, the MIC (commonly the lowest concentration that inhibits growth of the organism) is “inactive”.
On to `CC(=O)O[C@H]1C[C@@]2(C)[C@@H](CC[C@H]3[C@@]4(C)CC[C@@H](O)[C@@H](C)[C@@H]4[C@@H](O)[C@H](OC(C)=O)[C@@]32C)/C1=C(\CCC=C(C)C)C(=O)O`, for which the MIC entry is “inactive”.
For the molecule `CC(=O)OC1C[C@@]2(C)[C@@H](CC[C@H]3[C@@]4(C)CCC(=O)[C@@H](C)[C@@H]4[C@@H](O)[C@H](O)[C@@]32C)/C1=C(\CCC=C(C)C)C(=O)O` (single isomer, unassigned), the MIC entry is “inactive”.
On to `CC(=O)OC1C[C@@]2(C)[C@@H](CC[C@H]3[C@@]4(C)CCC(=O)[C@@H](C)[C@@H]4[C@@H](O)[C@H](OC(C)=O)[C@@]32C)/C1=C(\CCC=C(C)C)C(=O)O` (single isomer, unassigned), for which the MIC entry was “inactive”.
The same measure, in the same setting: the result for `CC(=O)OC1C[C@@]2(C)[C@@H](CC[C@H]3[C@@]4(C)CCC(=O)[C@@H](C)[C@@H]4[C@@H](OC(C)=O)[C@H](O)[C@@]32C)/C1=C(\CCC=C(C)C)C(=O)O` (single isomer, unassigned) reads “inactive”.

The next experiment concerns Staphylococcus aureus. The experiment can be described thus: Antibacterial activity against Staphylococcus aureus ATCC 25923 assessed as inhibition of microbial growth at 0.064 ug/ml to 125 ug/ml incubated at 37 degC for 20 hrs. Type of experiment: functional. The following applies: ATCC 25923, 20 h.
As to `CC(=O)O[C@@H]1[C@H]2[C@H](C)[C@H](O)CC[C@]2(C)[C@@H]2CC[C@H]3/C(=C(\CCC=C(C)C)C(=O)O)[C@@H](OC(C)=O)C[C@]3(C)[C@@]2(C)[C@H]1O`, the MIC came out at 8 µg/mL.
On the same count and under the same terms, the result for `CC(=O)O[C@H]1C[C@@]2(C)[C@@H](CC[C@H]3[C@@]4(C)CC[C@@H](O)[C@@H](C)[C@@H]4[C@@H](O)[C@H](OC(C)=O)[C@@]32C)/C1=C(\CCC=C(C)C)C(=O)O` reads 64 µg/mL; that for `CC(=O)OC1C[C@@]2(C)[C@@H](CC[C@H]3[C@@]4(C)CCC(=O)[C@@H](C)[C@@H]4[C@@H](O)[C@H](O)[C@@]32C)/C1=C(\CCC=C(C)C)C(=O)O` (single isomer, unassigned), above 125 µg/mL.
The same measure, in the same setting: next, `CC(=O)OC1C[C@@]2(C)[C@@H](CC[C@H]3[C@@]4(C)CCC(=O)[C@@H](C)[C@@H]4[C@@H](O)[C@H](OC(C)=O)[C@@]32C)/C1=C(\CCC=C(C)C)C(=O)O` (single isomer, unassigned): 64 µg/mL; `CC(=O)OC1C[C@@]2(C)[C@@H](CC[C@H]3[C@@]4(C)CCC(=O)[C@@H](C)[C@@H]4[C@@H](OC(C)=O)[C@H](O)[C@@]32C)/C1=C(\CCC=C(C)C)C(=O)O` (single isomer, unassigned): 4 µg/mL; `NC[C@H]1O[C@H](O[C@H]2[C@H](O)[C@@H](O[C@H]3O[C@H](CO)[C@@H](O)[C@H](N)[C@H]3O)[C@H](N)C[C@@H]2N)[C@H](O)[C@@H](O)[C@@H]1O` [KANAMYCIN]: 2 µg/mL.

For the next experiment, the system named is Staphylococcus aureus. The experiment can be described thus: Antibacterial activity against methicillin-resistant Staphylococcus aureus ATCC 33591 assessed as inhibition of microbial growth at 0.064 ug/ml to 125 ug/ml incubated at 37 degC for 20 hrs. The following applies: ATCC 33591, 20 h. It counts as functional.
As to `CC(=O)O[C@@H]1[C@H]2[C@H](C)[C@H](O)CC[C@]2(C)[C@@H]2CC[C@H]3/C(=C(\CCC=C(C)C)C(=O)O)[C@@H](OC(C)=O)C[C@]3(C)[C@@]2(C)[C@H]1O`, the MIC worked out at 8 µg/mL.
As to `CC(=O)O[C@H]1C[C@@]2(C)[C@@H](CC[C@H]3[C@@]4(C)CC[C@@H](O)[C@@H](C)[C@@H]4[C@@H](O)[C@H](OC(C)=O)[C@@]32C)/C1=C(\CCC=C(C)C)C(=O)O`, the MIC was found to be 125 µg/mL.
For `CC(=O)OC1C[C@@]2(C)[C@@H](CC[C@H]3[C@@]4(C)CCC(=O)[C@@H](C)[C@@H]4[C@@H](O)[C@H](O)[C@@]32C)/C1=C(\CCC=C(C)C)C(=O)O` (single isomer, unassigned), the minimum inhibitory concentration (MIC) was above 125 µg/mL.
On to `CC(=O)OC1C[C@@]2(C)[C@@H](CC[C@H]3[C@@]4(C)CCC(=O)[C@@H](C)[C@@H]4[C@@H](O)[C@H](OC(C)=O)[C@@]32C)/C1=C(\CCC=C(C)C)C(=O)O` (single isomer, unassigned), for which the minimum inhibitory concentration (MIC) was above 125 µg/mL.
The same measure, in the same setting: next, `CC(=O)OC1C[C@@]2(C)[C@@H](CC[C@H]3[C@@]4(C)CCC(=O)[C@@H](C)[C@@H]4[C@@H](OC(C)=O)[C@H](O)[C@@]32C)/C1=C(\CCC=C(C)C)C(=O)O` (single isomer, unassigned): 8 µg/mL; `NC[C@H]1O[C@H](O[C@H]2[C@H](O)[C@@H](O[C@H]3O[C@H](CO)[C@@H](O)[C@H](N)[C@H]3O)[C@H](N)C[C@@H]2N)[C@H](O)[C@@H](O)[C@@H]1O` [KANAMYCIN]: above 125 µg/mL.
